Series [1] deals with Human colorectal carcinoma cell line (HCT116). Description: Cytotoxicity test / growth inhibition, HCT116. The format is cell-based. To be noted: HCT-116, HCT116, 48 hours, cell counting. Here is the method: (§1) Cells were purchased from American Type Culture Collection (ATCC, Manassas, Va., USA). The LNCaP (ATCC® CRL-1740™), A549 (ATCC® CCL-185™), MDA-MB-231 (ATCC® CRM-HTB-26™), 22Rv1 (ATCC® CRL-2505™), HCT-116 (ATCC® CCL-247™) and PC3 (ATCC® CRL-1435™) cells were maintained in Roswell Park Memorial Institute 1640 medium (RPMI; Euroclone, ECB9006L) supplemented with 10% fetal bovine serum (Euroclone; ECS0180L), 2 mM L-glutamine, 100 units/mL penicillin and […] streptomycin at 37° C. in an atmosphere of 5% CO2/air. DU145 (ATCC® HTB-81™), and DAOY (ATCC® HTB-186™) cells were maintained in Eagle's minimal essential medium (EMEM; Euro-clone, ECM0445L) supplemented with 10% fetal bovine serum (Euroclone; ECS0180L), 2 mM L-glutamine, 100 units/ml penicillin and […] streptomycin at 37° C. in an atmosphere of 5% CO2/air. SH-SY5Y (ATCC® CRL-2266™), DBRTG (ATCC® CRL-2020™), HeLa (ATCC® CCL-2™), HN6 cells (kindly provided by Dr Silvio Gutkind, UCSD Medical Center, Moores Cancer Center USA, Chen J. J et al, Oncotarget 2013, 4, 206-217)), U2OS (ATCC® HTB-96™), RD18 cells (kindly provided by Dr P. Boccuni Memorial Sloan-Kettering Cancer Center, New York, USA Vella S. et al. Clin Epigenetics. […]
(§2) Cell lines were seeded at appropriate densities in 2 mL growth medium in 6-wells culture plates 24 hours before the treatment with the inhibitor compounds. […] Cells were incubated 48 hours with drugs and, then, cell viability was evaluated.
(§3) Cells were detached from each well of the 6-wells plates with 300 μL of Trypsin and suspended in culture medium to a final volume of 1 mL. Cell viability was then assessed through cell counting. Cells were diluted in 1:50 ratio of an isotonic buffered diluent, Isoton (Backman Coulter), following the manufacturer's instructions, and counted using an automated cell counter (Z2 series Coulter Counter, Beckman Coulter). […]

Series [2] has as its system Human osteosarcoma cell line (U2OS). Description: Cytotoxicity test / growth inhibition, U2OS. The format is cell-based. To be noted: 48 hours, cell counting. Here is the method:
(§4) Cells were purchased from American Type Culture Collection (ATCC, Manassas, Va., USA). The LNCaP (ATCC® CRL-1740™), A549 (ATCC® CCL-185™), MDA-MB-231 (ATCC® CRM-HTB-26™), 22Rv1 (ATCC® CRL-2505™), HCT-116 (ATCC® CCL-247™) and PC3 (ATCC® CRL-1435™) cells were maintained in Roswell Park Memorial Institute 1640 medium (RPMI; Euroclone, ECB9006L) supplemented with 10% fetal bovine serum (Euroclone; ECS0180L), 2 mM L-glutamine, 100 units/mL penicillin and […] streptomycin at 37° C. in an atmosphere of 5% CO2/air. DU145 (ATCC® HTB-81™), and DAOY (ATCC® HTB-186™) cells were maintained in Eagle's minimal essential medium (EMEM; Euro-clone, ECM0445L) supplemented with 10% fetal bovine serum (Euroclone; ECS0180L), 2 mM L-glutamine, 100 units/ml penicillin and […] streptomycin at 37° C. in an atmosphere of 5% CO2/air. SH-SY5Y (ATCC® CRL-2266™), DBRTG (ATCC® CRL-2020™), HeLa (ATCC® CCL-2™), HN6 cells (kindly provided by Dr Silvio Gutkind, UCSD Medical Center, Moores Cancer Center USA, Chen J. J et al, Oncotarget 2013, 4, 206-217)), U2OS (ATCC® HTB-96™), RD18 cells (kindly provided by Dr P. Boccuni Memorial Sloan-Kettering Cancer Center, New York, USA Vella S. et al. Clin Epigenetics. 2015 6; 7-82), cells were maintained in Dulbecco's modified Eagle's medium (DMEM; Euroclone, ECB7501L) supplemented with 10% fetal bovine serum (Euroclone; ECS0180L), 2 mM L-glutamine, 100 units/ml penicillin and […] streptomycin at 37° C. in an atmosphere of 5% CO2/air.
(§5) Cell lines were seeded at appropriate densities in 2 mL growth medium in 6-wells culture plates 24 hours before the treatment with the inhibitor compounds. After 24 h the culture medium was removed and fresh medium containing increasing concentrations of chemical compounds was added to cells. The fixed final concentrations were: 0.1 μM, 1 μM, 10 μM, 100 μM. DMSO was the vehicle used for dilution of the compounds and its final concentration on cells was less than 0.2%. Medium-only containing wells were included as controls. Cells were incubated 48 hours with drugs and, then, cell viability was evaluated.
(§6) Cells were detached from each well of the 6-wells plates with 300 μL of Trypsin and suspended in culture medium to a final volume of 1 mL. Cell viability was then assessed through cell counting. Cells were diluted in 1:50 ratio of an isotonic buffered diluent, Isoton (Backman Coulter), following the manufacturer's instructions, and counted using an automated cell counter (Z2 series Coulter Counter, Beckman Coulter). Each cell count was performed in three replicates. The values corresponding to the relative survival of cells in presence of each chemical compound at single concentrations were normalized to the untreated controls. Then, the half maximal inhibitory concentration (IC50) value, which represent the drug concentration that is required to induce a 50% growth inhibition in vitro, was calculated with GraphPad Prism 6.0 software using the best fitting sigmoid curve.

The subject of series [3] is Human head and neck squamous carcinoma cell line (HN6). Description: Cytotoxicity test / growth inhibition, HN6. Type of series: cell-based. The note with it: HN6, 48 hours, cell counting. Here is the method: as §4, §5, §6
Series [4] concerns Human adenocarcinomic alveolar basal epithelial cell line (A549). Description: Cytotoxicity test / growth inhibition, A549. Type of series: cell-based. To be noted: A549, 48 hours, cell counting. The protocol: as §4, §5, §6
Another series can be described thus: Water Solubility Assay. Type of series: physicochemical. The protocol: Water Solubility Assay. Each solid compound (1 mg) was added to 1 mL of water. The samples were shaked in a shaker bath at room temperature for 24-36 h. The suspensions were filtered through a 0.45 μm nylon filter (Acrodisc), and the solubilized compound determined by LC-MS-MS assay. For each compound the determination was performed in triplicate.
(§7) For the quantification was used an LC-MS system consisted of a Varian apparatus (Varian Inc) including a vacuum solvent degassing unit, two pumps (212-LC), a Triple Quadrupole MSD (Mod. 320-LC) mass spectrometer with ES interface and Varian MS Workstation System Control Vers. 6.9 software. Chromatographic separation was obtained using a Pursuit C18 column (50×2.0 mm) (Varian) with 3 μm particle size and gradient elution: eluent A being ACN and eluent B consisting of water. […] The flow rate was 0.2 mL min^−1 and injection volume was 5 μL. The instrument operated in positive mode and parameters were: detector 1850 V, drying gas pressure 25.0 psi, desolvation temperature 300.0° C., nebulizing gas 40.0 psi, needle 5000 V and shield 600 V. Nitrogen was used as nebulizer gas and drying gas. Collision induced dissociation was performed using Argon as the collision gas at a pressure of 1.8 mTorr in the collision cell. Microsomal Stability Assay. […] The reaction was stopped by cooling on ice and adding 1.0 mL of acetonitrile. The reaction mixtures were then centrifuged, and the parent drug and metabolites were subsequently determined by LC-UV-MS. Chromatographic analysis was performed with an Agilent 1100 LC/MSD VL system (G1946C) (Agilent Technologies, Palo Alto, Calif.) constituted by a vacuum solvent degassing unit, a binary high-pressure gradient pump, an 1100 series UV detector, and an 1100 MSD model VL benchtop mass spectrometer.

Series [5] can be described thus: Microsomal Stability Assay (HLM). The format is in vitro ADME. To be noted: human liver microsomes, 37° C., 60 min, NADPH-generating system; percentage of not metabolized compound.
From the text: as §7
Chromatographic separation was obtained using a Varian Polaris C18-A column (150-4.6 mm, 5 μm particle size) and gradient elution: eluent A being ACN and eluent B consisting of water. […] The flow rate was 0.8 mL min^−1 and injection volume was 20 μL.
The Agilent 1100 series mass spectra detection (MSD) single-quadrupole instrument was equipped with the orthogonal spray API-ES (Agilent Technologies, Palo Alto, Calif.). Nitrogen was used as nebulizing and drying gas. The pressure of the nebulizing gas, the flow of the drying gas, the capillary voltage, the fragmentor voltage, and the vaporization temperature were set at 40 psi, 9 L/min, 3000 V, 70 V, and 350° C., respectively. UV detection was monitored at 280 nm. The LC-ESI-MS determination was performed by operating the MSD in the positive ion mode. Spectra were acquired over the scan range m/z 100-1500 using a step size of 0.1 u. The percentage of not metabolized compound was calculated by comparison with reference solutions.

Series [6] in a line: Parallel Artificial Membrane Permeability Assay (PAMPA), GI. The note with it: GI (intestinal) PAMPA, value in brackets. The format is in vitro ADME. The protocol: Parallel Artificial Membrane Permeability Assay (PAMPA). Donor solution (0.5 mM) was prepared by diluting 1 mM dimethylsulfoxide (DMSO) compound stock solution using phosphate buffer (pH 7.4, 0.025 M). Filters were coated with 5 μL of a 1% (w/v) dodecane solution of phosphatidylcholine prepared from CHCl3 solution 10% w/v, for intestinal permeability. Donor solution (150 μL) was added to each well of the filter plate. To each well of the acceptor plate were added 300 μL of solution (50% DMSO in phosphate buffer). All compounds were tested in three different plates on different days. The sandwich was incubated for 5 h at room temperature under gentle shaking. After the incubation time, the plates were separated, and samples were taken from both receiver and donor sides and analyzed using LC with UV detection at 280 nm.
LC analysis were performed with a Varian Prostar HPLC system (Varian Analytical Instruments, USA) equipped with a binary pump with a manual injection valve and model Prostar 325 UV-VIS Detector. Chromatographic separations were conducted using a Polaris C18-A column (150-4.6 mm, 5 μm particle size) at a flow rate of 0.8 mL min^−1 with a mobile phase composed of 60% ACN/40% H2O.
Permeability (Papp) for PAMPA was calculated according to the following equation, obtained from Wohnsland and Faller and Sugano et al. equation with some modification in order to obtain permeability values in cm s^−1,
where VA is the volume in the acceptor well, VD is the volume in the donor well (cm^3), A is the “effective area” of the membrane (cm^2), t is the incubation time (s) and r the ratio between drug concentration in the acceptor and equilibrium concentration of the drug in the total volume (VD+VA). Drug concentration is estimated by using the peak area integration.
Membrane retentions (%) were calculated according to the following equation: […]
where r is the ratio between drug concentration in the acceptor and equilibrium concentration, D, A, and Eq represented drug concentration in the donor, acceptor and equilibrium solution, respectively.

Series [7] relates to Human breast adenocarcinoma cell line (MDA-MB-231). Description: Cytotoxicity test / growth inhibition, MDA-MB-231. Type of series: cell-based. The note with it: MDA-MB-231, 48 hours, cell counting. The protocol: as §4, §5, §6
The test system of series [8] is Human Prostate cell line derived from brain metastasis (DU-145). Description: Cytotoxicity test / growth inhibition, DU-145. The format is cell-based. To be noted: DU-145, 48 hours, cell counting. Here is the method:
as §4, §5
as §3, with “Coulter). Each cell count was performed in three replicates. The values corresponding to the relative survival of cells in presence of each chemical compound at single concentrations were normalized to the untreated controls.” for “Coulter).”

Series [9] concerns Human Prostate cancer cell line (PC3). Description: Cytotoxicity test / growth inhibition, PC3. The format is cell-based. To be noted: PC3, 48 hours, cell counting. Here is the method:
as §1, §2, §3

SMILES strings stand for the structures. Some results are limits rather than exact numbers.

Regarding `CCCCc1nc(-c2ccc(NC(=O)Nc3ccccc3C(F)(F)F)cc2)no1` [Compound 106, 1-(4-(5-butyl-1,2,4-oxadiazol-3-yl)phenyl)-3-(2-(trifluoromethyl)phenyl)urea], the IC50 (usually the concentration that inhibits the measured activity by half) worked out at 36.8 µM in [1], 35.4 µM in series [2], 18.2 µM in series [3] and 32.6 µM in series [4].

In the series “Water Solubility Assay” (from aqueous solubility), `CCCCn1nnc(-c2ccc(NC(=O)Nc3ccccc3C)cc2)n1` [Compound 49, 1-(4-(2-butyl-2H-tetrazol-5-yl)phenyl)-3-(o-tolyl)urea] gave a LogS of under −8.5. In the series “Water Solubility Assay” (water, room temperature, 24-36 h), the “Aq. Solub.” value is under 0.001 µg/mL. Further, the Sability % in series [5] came out at 95.6%. Besides, the “PAMPA GI (RM %) membrane retention” value in [6] amounted to 24.8%.

Regarding `CCCCc1nnc(-c2ccc(NC(=O)Nc3ccccc3C(F)(F)F)cc2)o1` [Compound 112, 1-(4-(5-butyl-1,3,4-oxadiazol-2-yl)phenyl)-3-(2-(trifluoromethyl)phenyl)urea], the 50% inhibitory concentration (IC50) in [1] is 38.2 µM; in series [3], 75.7 µM; in [4], 57.1 µM; in [7] it was 33.6 µM.

On to `CC(C)CCc1cn(-c2ccc(NC(=O)Nc3cccc4cnccc34)cc2)nn1` [Compound 55f, 1-(4-(4-isopentyl-1H-1,2,3-triazol-1-yl)phenyl)-3-(isoquinolin-5-yl)urea], for which the IC50 came out at 6.1 µM in [3], 0.6 µM in series [8] and 32.4 µM in series [9].

The values are drawn from patent US11000512B2, “Use of DDX3 inhibitors as antiproliferative agents” (AZIENDA OSPEDALIERA UNIVERSITARIA SENESE, priority 2016, dated 2021).
